Here are results for 18 compounds from publication PMC5748275, “Novel Aryl Substituted Pyrazoles as Small Molecule Inhibitors of Cytochrome P450 CYP121A1: Synthesis and Antimycobacterial Evaluation” (Journal of Medicinal Chemistry, 2017).

Each structure is given as a SMILES string.

This assay concerns the target T1, CYP121A1 (Mycobacterium tuberculosis, UniProt P9WPP7).
T1 construct: made in house
Format: binding. Particulars: heme Soret peak position, ligand-free to apparent saturation.

T1 sequence (P9WPP7 whole entry): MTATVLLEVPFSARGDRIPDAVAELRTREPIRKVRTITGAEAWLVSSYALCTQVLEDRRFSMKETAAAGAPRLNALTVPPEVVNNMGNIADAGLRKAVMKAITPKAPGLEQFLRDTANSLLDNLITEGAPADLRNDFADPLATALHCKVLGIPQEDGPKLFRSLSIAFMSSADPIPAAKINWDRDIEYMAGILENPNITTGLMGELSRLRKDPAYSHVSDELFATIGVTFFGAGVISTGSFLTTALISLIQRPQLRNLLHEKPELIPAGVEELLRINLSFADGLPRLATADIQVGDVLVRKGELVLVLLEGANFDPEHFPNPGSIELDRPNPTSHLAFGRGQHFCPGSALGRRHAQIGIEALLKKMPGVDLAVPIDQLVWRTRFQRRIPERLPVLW

Take `c1ccc(-c2nn(-c3ccccc3)cc2Cn2ccnc2)cc1` [7a, (1,3-Diphenyl)-4-((1,3-imidazol-1-yl)methyl)-1H-pyrazole]: the Soret peak shift is on record as 416–423.5 nm.

For the compound `Fc1ccc(-c2nn(-c3ccccc3)cc2Cn2ccnc2)cc1` [7b, 4-((1H-Imidazol-1-yl)methyl)-3-(4-fluorophenyl)-1-phenyl-1H-pyrazole], the Soret peak shift is 416–423.5 nm.

For the compound `Clc1ccc(-c2nn(-c3ccccc3)cc2Cn2ccnc2)cc1` [7c, 4-((1H-Imidazol-1-yl)methyl)-3-(4-chlorophenyl)-1-phenyl-1H-pyrazole], the Soret peak shift is 416–422 nm.

As to `Cc1ccc(-c2nn(-c3ccccc3)cc2Cn2ccnc2)cc1` [7d, 4-((1H-Imidazol-1-yl)methyl)-1-phenyl-3-(p-tolyl)-1H-pyrazole], the Soret peak shift is given as 416–421.5 nm.

Turning to `COc1ccc(-c2nn(-c3ccccc3)cc2Cn2ccnc2)cc1` [7e, 4-((1H-Imidazol-1-yl)methyl)-3-(4-methoxyphenyl)-1-phenyl-1H-pyrazole], the Soret peak shift was 416–421 nm.

With `Brc1ccc(-c2nn(-c3ccccc3)cc2Cn2ccnc2)cc1` [7f, 4-((1H-Imidazole-1-yl)methyl)-3-(4-bromophenyl)-1-phenyl-1H-pyrazole], the Soret peak shift is 416–420 nm.

With `Ic1ccc(-c2nn(-c3ccccc3)cc2Cn2ccnc2)cc1` [7g, 4-((1H-Imidazole-1-yl)methyl)-3-(4-iodophenyl)-1-phenyl-1H-pyrazole], the Soret peak shift was 416–422 nm.

As for `N#Cc1ccc(-c2nn(-c3ccccc3)cc2Cn2ccnc2)cc1` [7h, 4-(4-((1H-Imidazol-1-yl)methyl)-1-phenyl-1H-pyrazol-3-yl)benzonitrile], the Soret peak shift is 416–418 nm.

As for `c1ccc(-c2nn(-c3ccccc3)cc2Cn2cncn2)cc1` [8a, 1-((1,3-Diphenyl-1H-pyrazol-4-yl)methyl)-1H-[1,2,4]triazole], the Soret peak shift is recorded as 416–422 nm.

Take `Fc1ccc(-c2nn(-c3ccccc3)cc2Cn2cncn2)cc1` [8b, 1-((3-(4-Fluorophenyl)-1-phenyl-1H-pyrazole-4-yl)methyl)-1H-1,2,4-triazole]: the Soret peak shift is on record as 416–423 nm.

Consider `Clc1ccc(-c2nn(-c3ccccc3)cc2Cn2cncn2)cc1` [8c, 1-((3-(4-Chlorophenyl)-1-phenyl-1H-pyrazole-4-yl)methyl)-1H-1,2,4-triazole], for which the Soret peak shift is 416–421 nm.

Take `Cc1ccc(-c2nn(-c3ccccc3)cc2Cn2cncn2)cc1` [8d, 1((1-Phenyl-3-(p-tolyl)-1H-pyrazol-4-yl)methyl)-1H-1,2,4-triazole]: the Soret peak shift was 416–418 nm.

Regarding `COc1ccc(-c2nn(-c3ccccc3)cc2Cn2cncn2)cc1` [8e, 1-((3-(4-Methoxyphenyl)-1-phenyl-1H-pyrazol-4-yl)methyl)-1H-1,2,4-triazole], the Soret peak shift was 416–420 nm.

Regarding `Brc1ccc(-c2nn(-c3ccccc3)cc2Cn2cncn2)cc1` [8f, 1-((3-(4-Bromophenyl)-1-phenyl-1H-pyrazol-4-yl)methyl)-1H-1,2,4-triazole], the Soret peak shift was 416–417.5 nm.

Regarding `Ic1ccc(-c2nn(-c3ccccc3)cc2Cn2cncn2)cc1` [8g, 1-((3-(4-Iodophenyl)-1-phenyl-1H-pyrazol-4-yl)methyl)-1H-1,2,4-triazole], the Soret peak shift entry was “no binding”.

Turning to `N#Cc1ccc(-c2nn(-c3ccccc3)cc2Cn2cncn2)cc1` [8h], the Soret peak shift entry is “no binding”.

`O=C(NCCn1ccnc1)c1cn(-c2ccccc2)nc1-c1ccc(F)cc1` [13b, N-(2-(1H-Imidazol-1-yl)ethyl)-3-(4-fluorophenyl)-1-phenyl-1H-pyrazole-4-carboxamide]: the Soret peak shift entry is on record as “no binding”.

For `O=C(NCCn1ccnc1)c1cn(-c2ccccc2)nc1-c1ccc(Cl)cc1` [13c, N-(2-(1H-Imidazol-1-yl)ethyl)-3-(4-chlorophenyl)-1-phenyl-1H-pyrazole-4-carboxamide], the Soret peak shift entry was “no binding”.
